In patent US11690389B2, “Red beet pigment composition” (priority 2017, dated 2023):
Like-named read-outs stand apart in the source and are kept apart here.

Tests used:
[1] = tested on: A. Mangostanus seedlings; conditions: cited from earlier work
[2] = tested on: red beet plants (Monty Rz and Belushi Rz); experiment: Field trials harvested at a single time-point: foliar spraying of red beet plants with egc, betalain pigments and yield data of roots; format: in vivo, red beet (Beta vulgaris L. spp. vulgaris); conditions: for Betalains (g kg^−1 DM) / Betalains (mg kg^−1 FW) Bn / Betalains (mg kg^−1 FW) Vx / Betalains:TSS / Bn:Vx: egc 360 g ha^−1 foliar, roots 16 weeks after sowing
Method: (§1) Field trials were conducted at the Hoejbakkegaard (latitude 55, […]; Denmark) in 2015, where three-row plots were arranged in randomized block designs with three replicates. Rainfall was complemented by irrigation throughout red beet growth to avoid water stress. Foliar applications of an ethylene generating compound (egc), 2-chloroethylphosphonic acid (CERONE® brand ETHEPHON, 39.9% active ingredient, Bayer Crop Science, Leverkusen, Germany), at a concentration of 360 g ha^−1 were performed with a CO2 backpack spaced 50 cm apart, using manual spraying equipment designed for agricultural use. Egc application began 5 weeks after sowing and continued every 3 weeks, with a total of five applications. Plants were cultivated in loamy soil using techniques recommended for cultivation and plant protection in red beet crop production.
Trial 1. Plants were grown in plots consisted of 4.5 m-long rows, with a single harvest from the middle part of each row performed 16 weeks after sowing.
(§2) Biological replicates consisting of twenty beetroots were washed and split lengthwise. Of these, one pool of halves was ground and homogenized in a 3% sulfuric acid solution (1/1, w/w), using a Waring® two-speed commercial blender (VWR—Bie & Berntsen, Herlev, Denmark). The resulting fine homogenate was subsequently mixed with demineralized water (1/2, w/w) and vortexed. Finally, the sample was centrifuged for 20 min at 4500 rpm, and the supernatant (extract) was utilized for further analyses.
(§3) Bn and Vx were measured spectrophotometrically. The beetroot extract was diluted to a proper concentration in 33 mM KH2PO4 (pH 6.5), and the absorption was measured at 476 nm and 538 nm for Bn and Vx, respectively, using a UV-visible spectrophotometer (Thermo Scientific Evolution™ 220, Waltham, Mass., USA). Bn and Vx concentrations were expressed in mg kg^−1 fresh weight (FW), using the corresponding absorbance, molecular weight and extinction coefficient for Bn and Vx.
TSS was measured with a manual refractometer (Refracto 30PX/GS Mettler-Toledo Inc., OH, USA) operating in the 0% to 85% Brix range. The beetroot extract was filtered through 0.45 μm membrane filters, and Brix measurements were performed using 1 mL of the filtrate.
DM was determined after samples were dried to a constant weight at 100° C. for 24 h, based on the difference in mass between the fresh and dry samples. […] was then expressed as a percentage of the dry matter.

[3] = tested on: red beet plants (Monty Rz and Belushi Rz); experiment: Field trial with several harvests: betalain accumulation during root growth after foliar spraying with egc; format: in vivo, red beet (Beta vulgaris L. spp. vulgaris); conditions: for Bn content at peak: 9 weeks after sowing as printed; for Betalains (mg kg^−1 FW) Bn / Betalains (mg kg^−1 FW) Vx / Bn:Vx: egc 360 g ha^−1
Method: as §1
Trial 2. Plots consisted of 12 m-long rows, with several harvests from separate row segments performed during growth (3, 6, 9, 12, 15 and 18 weeks after sowing). For further analyses, biological replicates consisted of 20 whole beetroots harvested per plot.
as §2
as §3, with “Vx. […]” for “Vx.”

[4] = tested on: beet root; conditions: 50 ppm; cited from earlier work
[5] = Belushi Rz, 3 weeks after sowing
[6] = Belushi Rz, 6 weeks after sowing
[7] = Belushi Rz, 9 weeks after sowing
[8] = Belushi Rz, 12 weeks after sowing
[9] = Belushi Rz, 15 weeks after sowing
[10] = Belushi Rz, 18 weeks after sowing
[11] = Monty Rz, 12 weeks after sowing
[12] = Monty Rz, 15 weeks after sowing
[13] = Monty Rz, 18 weeks after sowing

SMILES: O=P(O)(O)CCCl [egc, 2-chloroethylphosphonic acid]
- pigment accumulation in seedlings ([1]; 0.1 mM): did not elicit pigment accumulation
- pigment accumulation in seedlings ([1]; 1 mM): did not elicit pigment accumulation
- pigment accumulation in seedlings ([1]; 5 mM): seemed to have an effect
- Vx content of roots, untreated versus treated plants ([2]; 16-week-old plants): did not vary significantly
- increase of Bn:Vx compared with untreated plants ([2]; Belushi Rz): 36%
- increase of betalains:TSS in average ([2]; Belushi Rz): 30%
- increase of root Bn content compared with untreated plants, in average ([2]; Belushi Rz): 20%
- mean Bn:Vx ([2]; Belushi Rz, egc treated beetroots): 6.1
- Betalains (g kg^−1 DM) ([2]; Field trial 1, Belushi Rz): 17.4 g kg^−1 DM
- Betalains (mg kg^−1 FW) Bn ([2]; Field trial 1, Belushi Rz): 1575 mg kg^−1 FW
- Betalains (mg kg^−1 FW) Vx ([2]; Field trial 1, Belushi Rz): 274 mg kg^−1 FW
- Betalains:TSS ([2]; Field trial 1, Belushi Rz): 0.126
- Bn:Vx ([2]; Field trial 1, Belushi Rz): 5.82
- Betalains (g kg^−1 DM) ([2]; Field trial 1, Monty Rz): 21.9 g kg^−1 DM
- Betalains (mg kg^−1 FW) Bn ([2]; Field trial 1, Monty Rz): 2166 mg kg^−1 FW
- Betalains (mg kg^−1 FW) Vx ([2]; Field trial 1, Monty Rz): 386 mg kg^−1 FW
- Betalains:TSS ([2]; Field trial 1, Monty Rz): 0.154
- Bn:Vx ([2]; Field trial 1, Monty Rz): 5.79
- Betalains (g kg^−1 DM) ([2]; Field trial 2, Belushi Rz): 15.0 g kg^−1 DM
- Betalains (mg kg^−1 FW) Bn ([2]; Field trial 2, Belushi Rz): 1584 mg kg^−1 FW
- Betalains (mg kg^−1 FW) Vx ([2]; Field trial 2, Belushi Rz): 247 mg kg^−1 FW
- Betalains:TSS ([2]; Field trial 2, Belushi Rz): 0.088
- Bn:Vx ([2]; Field trial 2, Belushi Rz): 6.42
- Betalains (g kg^−1 DM) ([2]; Field trial 2, Monty Rz): 21.5 g kg^−1 DM
- Betalains (mg kg^−1 FW) Bn ([2]; Field trial 2, Monty Rz): 2458 mg kg^−1 FW
- Betalains (mg kg^−1 FW) Vx ([2]; Field trial 2, Monty Rz): 364 mg kg^−1 FW
- Betalains:TSS ([2]; Field trial 2, Monty Rz): 0.132
- Bn:Vx ([2]; Field trial 2, Monty Rz): 6.88
- increase of Bn:Vx compared with untreated plants ([2]; Monty Rz): 34%
- increase of betalains:TSS in average ([2]; Monty Rz): 37%
- increase of root Bn content compared with untreated plants ([2]; Monty Rz): 25%
- mean Bn:Vx ([2]; Monty Rz, egc treated beetroots): 6.3
- Bn:Vn upon ethephon treatment ([2]; both cultivars): increased substantially
- effect on beetroot yield in tons per hectare ([2]; both cultivars): no significant effects
- effect on root FW ([2]; both cultivars): no significant effects
- Bn content of roots versus untreated plants ([2]; both cultivars, 16-week-old plants): increased
- DM (dry matter) of beetroots versus untreated roots ([2]; egc treated beetroots): lower
- betalain content versus untreated roots ([2]; egc treated beetroots): higher
- mean TSS versus untreated roots ([2]; egc treated beetroots): lower
- Bn:Vx higher in egc treated plants, average over all harvests ([3]; Belushi Rz): 35%
- higher Bn content than untreated, average of all harvests ([3]; Belushi Rz): 10%
- mean root Vx, less in average ([3]; Belushi Rz): 20%
- Bn content at peak ([3]; Belushi Rz): 2577 mg kg^−1 FW
- Betalains (mg kg^−1 FW) Bn [3, 5]: 945 mg kg^−1 FW
- Betalains (mg kg^−1 FW) Vx [3, 5]: 24.3 mg kg^−1 FW
- Bn:Vx [3, 5]: 39.0
- Betalains (mg kg^−1 FW) Bn [3, 6]: 2577 mg kg^−1 FW
- Betalains (mg kg^−1 FW) Vx [3, 6]: 58.4 mg kg^−1 FW
- Bn:Vx [3, 6]: 45.7
- Betalains (mg kg^−1 FW) Bn [3, 7]: 2144 mg kg^−1 FW
- Betalains (mg kg^−1 FW) Vx [3, 7]: 128 mg kg^−1 FW
- Bn:Vx [3, 7]: 17.2
- Betalains (mg kg^−1 FW) Bn [3, 8]: 1683 mg kg^−1 FW
- Betalains (mg kg^−1 FW) Vx [3, 8]: 157 mg kg^−1 FW
- Bn:Vx [3, 8]: 11.1
- Betalains (mg kg^−1 FW) Bn [3, 9]: 1442 mg kg^−1 FW
- Betalains (mg kg^−1 FW) Vx [3, 9]: 211 mg kg^−1 FW
- Bn:Vx [3, 9]: 6.84
- Betalains (mg kg^−1 FW) Bn [3, 10]: 1369 mg kg^−1 FW
- Betalains (mg kg^−1 FW) Vx [3, 10]: 286 mg kg^−1 FW
- Bn:Vx [3, 10]: 4.85
- Bn:Vx higher in egc treated plants, average over all harvests ([3]; Monty Rz): 17%
- higher Bn content than untreated, average of all harvests ([3]; Monty Rz): 17%
- mean root Vx, less in average ([3]; Monty Rz): 5%
- Bn content at peak ([3]; Monty Rz): 2867 mg kg^−1 FW
- Betalains (mg kg^−1 FW) Bn ([3]; Monty Rz, 3 weeks after sowing): 1343 mg kg^−1 FW
- Betalains (mg kg^−1 FW) Vx ([3]; Monty Rz, 3 weeks after sowing): 32.3 mg kg^−1 FW
- Bn:Vx ([3]; Monty Rz, 3 weeks after sowing): 41.6
- Betalains (mg kg^−1 FW) Bn ([3]; Monty Rz, 6 weeks after sowing): 2867 mg kg^−1 FW
- Betalains (mg kg^−1 FW) Vx ([3]; Monty Rz, 6 weeks after sowing): 62.3 mg kg^−1 FW
- Bn:Vx ([3]; Monty Rz, 6 weeks after sowing): 46.5
- Betalains (mg kg^−1 FW) Bn ([3]; Monty Rz, 9 weeks after sowing): 2685 mg kg^−1 FW
- Betalains (mg kg^−1 FW) Vx ([3]; Monty Rz, 9 weeks after sowing): 180 mg kg^−1 FW
- Bn:Vx ([3]; Monty Rz, 9 weeks after sowing): 14.9
- Betalains (mg kg^−1 FW) Bn [3, 11]: 2475 mg kg^−1 FW
- Betalains (mg kg^−1 FW) Vx [3, 11]: 239 mg kg^−1 FW
- Bn:Vx [3, 11]: 10.5
- Betalains (mg kg^−1 FW) Bn [3, 12]: 2274 mg kg^−1 FW
- Betalains (mg kg^−1 FW) Vx [3, 12]: 304 mg kg^−1 FW
- Bn:Vx [3, 12]: 7.56
- Betalains (mg kg^−1 FW) Bn [3, 13]: 2219 mg kg^−1 FW
- Betalains (mg kg^−1 FW) Vx [3, 13]: 455 mg kg^−1 FW
- Bn:Vx [3, 13]: 4.89
- highest Bn:Vx ([3]; both cultivars, 6 weeks after sowing): 46
- root mass and diameter, untreated versus treated red beets ([3]; both cultivars, at each harvest point, 360 g egc ha−1): no significant differences
- beta cyanin efflux [4]: promoted
